Source: patent US12448409B2, “Oxysterols and methods of use thereof” (priority 2016, dated 2025)

Each compound was assayed against T1, GlunN1/GluN2A glutamate receptors (Homo sapiens, UniProt Q05586+Q12879) (assay: cell-based). Settings: 3 μM test article; HEK293 cells expressing human GRIN1/GRIN2A; co-application with EC20 L-glutamate and 30 μM glycine; read-out: GluN2A PCA IWB Ephys % potentiation at 3 μM.
T1 construct: expressed in transfected cells
Description: NMDA potentiation was assessed using the whole cell patch clamp of mammalian cells which expressed NMDA receptors.
Whole-Cell Patch Clamp of Mammalian Cells (Ionworks Barracuda (IWB)
The whole-cell patch-clamp technique was used to investigate the effects of compounds on GlunN1/GluN2A glutamate receptors expressed in mammalian cells.
HEK293 cells were transformed with adenovirus 5 DNA and transfected with cDNA encoding the human GRIN1/GRIN2A genes. Stable transfectants were selected using G418 and Zeocin-resistance genes incorporated into the expression plasmid and selection pressure maintained with G418 and Zeocin in the medium. Cells were cultured in Dulbecco's Modified Eagle Medium/Nutrient Mixture (D-MEM/F-12) supplemented with 10% fetal bovine serum, 100 μg/ml penicillin G sodium, 100 μg/ml streptomycin sulphate, 100 μg/ml Zeocin, 5 μg/ml blasticidin and 500 μg/ml G418.
Test article effects were evaluated in 8-point concentration-response format (4 replicate wells/concentration). All test and control solutions contained 0.3% DMSO and 0.01% Kolliphor® EL (C5135, Sigma). The test article formulations were loaded in a 384-well compound plate using an automated liquid handling system (SciClone ALH3000, Caliper LifeScienses). The measurements were perfomed using Ion Works Barracuda platform following this procedure:
Electrophysiological Procedures:
• a) Intracellular solution (mM): 50 mM CsCl, 90 mM CsF, 2 mM MgCl2, 5 mM EGTA, 10 mM HEPES. Adjust to pH 7.2 with CsOH. • b) Extracellular solution, HB-PS (composition in mM): NaCl, 137; KCl, 1.0; CaCl2, 5; HEPES, 10; Glucose, 10; pH adjusted to 7.4 with NaOH (refrigerated until use). • c) Holding potential: −70 mV, potential during agonist/PAM application: −40 mV. Recording procedure: • a) Extracellular buffer will be loaded into the PPC plate wells (11 μL per well). Cell suspension will be pipetted into the wells (9 μL per well) of the PPC planar electrode. • b) Whole-cell recording configuration will be established via patch perforation with membrane currents recorded by on-board patch clamp amplifiers. • c) Two recordings (scans) will be performed. First, during pre-application of test article alone (duration of pre-application—5 min) and second, during test articles and agonist (EC20 L-glutamate and 30 μM glycine) co-application to detect positive modulatory effects of the test article.
Test Article Administration: The first pre-application will consist of the addition of 20 μL of 2× concentrated test article solution and, second, of 20 μL of 1× concentrated test article and agonist at 10 μL/s (2 second total application time).

T1 sequence (Q12879 23-1464, other chains not shown): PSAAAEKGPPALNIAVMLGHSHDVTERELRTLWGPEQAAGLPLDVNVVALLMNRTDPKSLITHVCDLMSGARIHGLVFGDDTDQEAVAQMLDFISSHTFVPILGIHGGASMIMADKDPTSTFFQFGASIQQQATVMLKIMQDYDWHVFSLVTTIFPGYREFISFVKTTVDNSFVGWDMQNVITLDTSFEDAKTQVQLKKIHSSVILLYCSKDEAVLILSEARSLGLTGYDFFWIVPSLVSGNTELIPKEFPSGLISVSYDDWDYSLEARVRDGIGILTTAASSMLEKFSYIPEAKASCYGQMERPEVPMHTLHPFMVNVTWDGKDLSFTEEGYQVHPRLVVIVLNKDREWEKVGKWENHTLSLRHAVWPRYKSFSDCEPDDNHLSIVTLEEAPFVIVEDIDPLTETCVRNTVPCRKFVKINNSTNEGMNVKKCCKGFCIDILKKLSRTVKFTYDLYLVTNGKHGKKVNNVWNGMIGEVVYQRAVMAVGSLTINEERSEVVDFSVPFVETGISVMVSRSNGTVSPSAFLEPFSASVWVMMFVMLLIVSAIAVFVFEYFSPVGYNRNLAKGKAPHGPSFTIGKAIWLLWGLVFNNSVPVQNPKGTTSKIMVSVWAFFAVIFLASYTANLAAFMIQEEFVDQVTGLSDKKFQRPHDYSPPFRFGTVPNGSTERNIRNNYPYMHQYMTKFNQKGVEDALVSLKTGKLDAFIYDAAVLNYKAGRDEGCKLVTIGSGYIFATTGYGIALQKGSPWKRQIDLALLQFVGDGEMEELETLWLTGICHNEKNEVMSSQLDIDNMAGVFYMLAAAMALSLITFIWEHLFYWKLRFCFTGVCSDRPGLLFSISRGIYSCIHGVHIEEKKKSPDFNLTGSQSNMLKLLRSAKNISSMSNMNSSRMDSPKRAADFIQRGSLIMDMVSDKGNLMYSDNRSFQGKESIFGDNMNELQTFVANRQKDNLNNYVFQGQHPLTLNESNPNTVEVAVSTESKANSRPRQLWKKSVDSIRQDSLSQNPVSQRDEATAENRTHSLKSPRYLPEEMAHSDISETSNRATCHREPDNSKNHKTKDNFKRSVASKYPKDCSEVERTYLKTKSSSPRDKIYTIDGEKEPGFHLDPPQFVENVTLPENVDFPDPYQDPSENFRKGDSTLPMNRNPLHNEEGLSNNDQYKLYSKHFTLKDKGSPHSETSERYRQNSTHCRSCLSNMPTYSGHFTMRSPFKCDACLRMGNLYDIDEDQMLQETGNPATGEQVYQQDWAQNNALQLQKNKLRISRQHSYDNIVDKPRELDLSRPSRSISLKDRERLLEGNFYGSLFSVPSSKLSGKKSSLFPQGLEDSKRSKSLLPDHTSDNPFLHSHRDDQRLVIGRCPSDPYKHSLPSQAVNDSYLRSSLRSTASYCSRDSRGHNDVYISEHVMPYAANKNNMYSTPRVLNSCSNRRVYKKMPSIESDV

SMILES | activation at 3 µM
CC[C@]1(O)CC[C@@]2(C)C(=CC[C@H]3[C@@H]4CC[C@H]([C@H](C)CCC5(O)CCC(C)(C)CC5)[C@@]4(C)CC[C@@H]32)C1 [Compound 13] | 10 to 100%
CC[C@]1(O)CC[C@@]2(C)[C@@H](CC[C@@H]3[C@@H]2CC[C@]2(C)[C@@H]([C@H](C)CCC4(O)CCOCC4)CC[C@@H]32)C1 [Compound 23] | > 150%
C[C@H](CCC1(O)CCC(F)(F)CC1)[C@H]1CC[C@H]2[C@@H]3CC[C@H]4C[C@@](C)(O)CC[C@]4(C)[C@H]3CC[C@]12C [Compound 16] | 10 to 100%
C[C@H](CCC1(O)CCCOC1)[C@H]1CC[C@H]2[C@@H]3CC[C@H]4C[C@@](C)(O)CC[C@]4(C)[C@H]3CC[C@]12C (some centres unmarked) [Compound 19] | > 150%
C[C@H](CC[C@]1(O)CCOC1)[C@H]1CC[C@H]2[C@@H]3CC=C4C[C@@](C)(O)CC[C@]4(C)[C@H]3CC[C@]12C [Compound 5-A] | 100 to 150%
C[C@H](CC[C@]1(O)CCOC1)[C@H]1CC[C@H]2[C@@H]3CC[C@H]4C[C@@](C)(O)CC[C@]4(C)[C@H]3CC[C@]12C [Compound 17] | > 150%
C[C@H](CCC1(O)CCN(C)CC1)[C@H]1CC[C@H]2[C@@H]3CC=C4C[C@@](C)(O)CC[C@]4(C)[C@H]3CC[C@]12C [Compound 8] | 10 to 100%
CC[C@]1(O)CC[C@@]2(C)[C@@H](CC[C@@H]3[C@@H]2CC[C@]2(C)[C@@H]([C@H](C)CCC4(O)CCC(C)(C)CC4)CC[C@@H]32)C1 [Compound 22] | 10 to 100%
C[C@H](CCC1(O)CCOCC1)[C@H]1CC[C@H]2[C@@H]3CC[C@H]4C[C@@](C)(O)CC[C@]4(C)[C@H]3CC[C@]12C [Compound 18] | > 150%
CC[C@]1(O)CC[C@@]2(C)C(=CC[C@H]3[C@@H]4CC[C@H]([C@H](C)CCC5(O)CCOCC5)[C@@]4(C)CC[C@@H]32)C1 [Compound 14] | > 150%
C[C@H](CC[C@@]1(O)CCOC1)[C@H]1CC[C@H]2[C@@H]3CC=C4C[C@@](C)(O)CC[C@]4(C)[C@H]3CC[C@]12C [Compound 5-B] | > 150%
C[C@H](CCC1(O)CCC(C)(C)CC1)[C@H]1CC[C@H]2[C@@H]3CC[C@H]4C[C@@](C)(O)CC[C@]4(C)[C@H]3CC[C@]12C [Compound 20] | 10 to 100%
C[C@H](CCC1(O)CCOC1)[C@H]1CC[C@H]2[C@@H]3CC=C4C[C@@](C)(O)CC[C@]4(C)[C@H]3CC[C@]12C (some centres unmarked) [Compound 5] | > 150%
C[C@H](CCC1(O)CCCCC1)[C@H]1CC[C@H]2[C@@H]3CC=C4C[C@@](C)(O)CC[C@]4(C)[C@H]3CC[C@]12C [Compound 2] | > 150%
C[C@H](CCC1(O)CCC(F)(F)CC1)[C@H]1CC[C@H]2[C@@H]3CC=C4C[C@@](C)(O)CC[C@]4(C)[C@H]3CC[C@]12C [Compound 1] | > 150%
C[C@H](CCC1(O)CCCC1)[C@H]1CC[C@H]2[C@@H]3CC=C4C[C@@](C)(O)CC[C@]4(C)[C@H]3CC[C@]12C [Compound 3] | > 150%
CC[C@]1(O)CC[C@@]2(C)[C@@H](CC[C@@H]3[C@@H]2CC[C@]2(C)[C@@H]([C@H](C)CCC4(O)CCC(F)(F)CC4)CC[C@@H]32)C1 [Compound 21] | > 150%
C[C@H](CCC1(O)CCCOC1)[C@H]1CC[C@H]2[C@@H]3CC=C4C[C@@](C)(O)CC[C@]4(C)[C@H]3CC[C@]12C (some centres unmarked) [Compound 11] | > 150%
CC(=O)N1CCC(O)(CC[C@@H](C)[C@H]2CC[C@H]3[C@@H]4CC=C5C[C@@](C)(O)CC[C@]5(C)[C@H]4CC[C@]23C)CC1 [Compound 9] | > 150%
CC[C@]1(O)CC[C@@]2(C)C(=CC[C@H]3[C@@H]4CC[C@H]([C@H](C)CCC5(O)CCC(F)(F)CC5)[C@@]4(C)CC[C@@H]32)C1 [Compound 12] | > 150%
C[C@H](CCC1(O)CCOCC1)[C@H]1CC[C@H]2[C@@H]3CC=C4C[C@@](C)(O)CC[C@]4(C)[C@H]3CC[C@]12C [Compound 6] | 100 to 150%
CC[C@]1(O)CC[C@@]2(C)C(=CC[C@H]3[C@@H]4CC[C@H]([C@H](C)CCC5(O)CCCOC5)[C@@]4(C)CC[C@@H]32)C1 (some centres unmarked) [Compound 15] | > 150%
C[C@H](CCC1(O)CCC1)[C@H]1CC[C@H]2[C@@H]3CC=C4C[C@@](C)(O)CC[C@]4(C)[C@H]3CC[C@]12C [Compound 4] | 100 to 150%
CC[C@]1(O)CC[C@@]2(C)[C@@H](CC[C@@H]3[C@@H]2CC[C@]2(C)[C@@H]([C@H](C)CCC4(O)CCCOC4)CC[C@@H]32)C1 (some centres unmarked) [Compound 24] | > 150%

Same assay, conditions: HEK293, read-out: GluN2A PCA IWB Ephys % potentiation at 3 μM

SMILES | activation at 3 µM
C[C@H](CCC1(O)CCNCC1)[C@H]1CC[C@H]2[C@@H]3CC=C4C[C@@](C)(O)CC[C@]4(C)[C@H]3CC[C@]12C [Compound 7] | 100 to 150%
C[C@H](CCC1(O)CCC(C)(C)CC1)[C@H]1CC[C@H]2[C@@H]3CC=C4C[C@@](C)(O)CC[C@]4(C)[C@H]3CC[C@]12C [Compound 10] | 10 to 100%
